Measurements from patent publication US5574068A, “S-nitrosothiols as smooth muscle relaxants and therapeutic uses thereof” (Brigham and Woman's Hospital, priority 1994, dated 1996).
“Also recorded” adds a separate entry of the source.

Experiments:
[1] = system: human airway smooth muscle; experiment: Airway bioassay: relaxation of contracted human tracheal/airway rings; format: cell-based; details: for relaxant effect on human trachea, comparison with other agents: human tracheal rings, FIGS. 11-14; for IC50: human airways 5-12 mm outer diameter, contracted with methacholine (7 μM); for IC50 compared with theophylline: human airways contracted with methacholine (7 μM); for inhibition of S-nitrosothiol (SNOAC)-induced relaxation in human airways: methylene blue 10^-4, LY83583 5×10^-5, hemoglobin 100 μM
Description: (§1) Male Hartley guinea pigs (500-600 g) were anesthetized by inhalation of enflurane to achieve a surgical plane of anesthesia. The trachea were excised and placed in Kreb's-Henseleit buffer (mM): NaCl 118, CKl 5.4, NaH2 PO4 1.01, glucose 11.1, NaHCO3 25.0, MgSO4 0.69, CaCl 2.32, pH 7.4. The airways were then dissected free from surrounding fat and connective tissue and cut into rings 2-4 mm in diameter. The trachea rings were placed in sterile Medium 199 containing 1% antibiotic/antimycotic mixture in an atmosphere of 5% CO2, 45% O2, […], and kept for up to 48 hours in tissue culture. The experiments were also performed on human airway smooth muscle, isolated by the same method.
(§2) Trachea and aortic rings were mounted on stirrups and connected to transducers (model FOT3C Grass) with which changes in isometric tension were measured. Rings were then suspended in 10 cc of oxygenareal (95% O2, 5% CO2) buffer. Conditions for both the vessel and airway bioassays were established according to standard methodologies as described in Cooke et al., Am. J. Physiol. 259(3):H804-H812 (1990).
(§3) In airway experiments, the tings were equilibrated for 60 minutes under a load of 1 gm and then primed twice by exposure to 100 μmethacholine. Tissues were contracted with various agonists at concentrations determined to generate 50% (±16% S.D.) of maximum tone, after which the effects of different thiols and their S-nitrosylated derivatives were assessed. In selected experiments, relaxation responses were determined in the presence of hemoglobin, or after rings had been preexposed to methylene blue for 30 minutes.
(§4) The effect of guanylate cyclase inhibitors upon S-nitrosothiol-induced airway relaxation and cGMP increase was assessed, using the previously described bioassay and cyclic nucleotide assay procedures. Bronchodilator effects of S-NOGSH and SNOAC were examined in human airways (5-12 mm outer diameter).

[2] = biological target: T1, hemoglobin (Bos taurus, UniProt P01966+P02070); experiment: Reaction of S-nitrosothiol with hemoglobin (UV spectrum, oxygen association curve); format: biochemical, bovine; details: SNOAC over 15 minutes, NO from NaNO2 in 0.5N HCl
T1 construct: purchased Sigma Chemical Co., St. Louis, Mo
T1 sequence (P02070 whole entry): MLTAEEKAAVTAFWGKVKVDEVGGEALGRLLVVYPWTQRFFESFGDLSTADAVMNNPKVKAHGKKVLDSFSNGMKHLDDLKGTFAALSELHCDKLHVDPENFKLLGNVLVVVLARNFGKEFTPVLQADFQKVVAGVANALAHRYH
T1 sequence (P01966 2-142 limits assumed): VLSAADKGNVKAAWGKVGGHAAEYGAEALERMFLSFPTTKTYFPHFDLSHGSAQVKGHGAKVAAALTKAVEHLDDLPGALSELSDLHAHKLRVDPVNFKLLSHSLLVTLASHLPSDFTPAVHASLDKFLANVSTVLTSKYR
Method: Additional experiments were conducted to evaluate the reaction between S-nitrosothiols and hemoglobin. […] S-nitrosylation was verified, using standard methods for detection of S-nitrosothiols (Saville, Analyst 83:670-672 (1958)). The Saville method, which assays free NOx in solution, involves a diazotization reaction with sulfanilamide and subsequent coupling with the chromophore N-(1-naphthyl)ethylenediamine. The specificity for S-nitrosothiols derives from assay determinations performed in the presence and absence of HgCl2, the latter reagent catalyzing the hydrolysis of the S--NO bond.
For the purposes of comparison, equimolar concentrations of hemoglobin and NaNO2 were reacted in 0.5N HCl, to form nitrosyl-hemoglobin, and the UV spectrum was obtained.
Thus, the reaction between S-nitrosothiols and hemoglobin not only eliminates the inhibition of oxygen binding which occurs from the reaction with NO.cndot., but actually increases binding and oxygenation of the blood.

[3] = Stability in the presence of oxygen and redox metals; format: physicochemical; details: 95% O2, pH 7.4
Method: The stability of SNOAC and SNOGSH in the presence of oxygen and redox metals was assessed.
In addition, S-nitrosothiol stability was assessed in the presence of various redox metals or chelating agents. These compounds were resistant to decomposition when Cu^+, Fe^2+, or Cu^2+ (50 μM) or defuroxamine or EDTA S-nitrosothiols are not rapidly inactivated in the presence of oxygen, nor do they decompose in the presence of redox metals.

[4] = system: cGMP in human airways; experiment: Cyclic GMP radioimmunoassay in human airways; format: cell-based
Method: (§5) The mechanism by which S-nitrosothiols relax vascular smooth muscle is felt to be through activation of guanylate cyclase with consequent increase in intracellular cyclic GMP (Ignarro et al., Circ. Res. 65:1-21 (1989); Loscalzo et al., J. Pharmacol. Exp. Ther. 249(3):726-729 (1989)). In order to assess this mechanism in airways, tracheal rings in Kreb's-Henseleit solution were exposed to 100 μM S-nitroso-N-acetylcysteine (SNOAC) for 90 seconds. Reactions were terminated by the addition of ice cold 10% trichloracetic acid and rapid freezing in ethanol-saturated dry ice.
(§6) In selected experiments, rings were preexposed to the guanylate cyclase inhibitor, methylene blue (10^-4 M) for 30 minutes. Tissues were then individually pulverized with a glass (s) homogenizer and centrifuged at 8000 g for 5 minutes. The clear supernatant was extracted with water-saturated ether and assayed for cyclic GMP by radioimmunoassay. Acetylation of samples with acetic anhydride was used to increase the sensitivity of the assay and the determination of recoveries was aided by the use of [^3 H] cyclic GMP.
as §4

[5] = system: cyclic GMP (guanylate cyclase) in tracheal rings; experiment: Cyclic GMP radioimmunoassay in guinea pig tracheal rings; format: cell-based
Method: as §5, §6

[6] = system: gastrointestinal smooth muscle (Sphincter of Oddi, duodenum, colon); experiment: Patient studies: topical administration during endoscopy, gastrointestinal smooth muscle motility; format: in vivo, human; details: patients
Description: Patient studies, conducted by the inventors, have measured the efficacy of S-nitrosothiols both in facilitating cannulation of the sphincter of Oddi, and in decreasing colon motility to allow for removal of colon polyps. […] The same type of effects would occur with the use of other cell impermeable S-nitrosothiols, such as S-nitroso-glutathione.

[7] = system: guinea pig tracheal rings; experiment: Airway bioassay: relaxation of contracted guinea pig tracheal rings (isometric tension); format: cell-based; details: for IC50: Cavia porcellus, guinea pig tracheal rings contracted with 3 μM histamine, mean ± S.D., read-out: Inhibitory Concentrations Inducing 50% Relaxation (IC50); for inhibition of relaxation responses to SNOAC: airways contracted with 3 uM histamine, 10^-5 M and 10^-4 M methylene blue; for inhibition of relaxation responses to SNOAC / attenuation of the actions (relaxation) of SNOAC: 10^-4 M hemoglobin; for attenuation of the actions (relaxation) of SNOAC: guinea pig airways, 10^-5 and 10^-4 M methylene blue
Description: as §1, §2, §3
Dose-response relationships to SNOAC were obtained in airways contracted with 3 uM histamine, and repeated in the presence of 10^-4 M hemoglobin, 10^-5 M methylene blue, and 10^-4 M methylene blue. […] Cyclic GMP determinations were performed in duplicate for each experiment.

[8] = cited from earlier work

CC(=O)N[C@@H](CS)C(=O)O [N-acetylcysteine, reference compound]
relaxant effect on human trachea, comparison with other agents [1]: caused significant constriction of the tracheal smooth muscle

[N]=O [NO, nitric oxide, reference compound]
reaction at the redox metal (iron-binding) site of hemoglobin [2]: reacted instantaneously with the redox metal site on hemoglobin | half life [3]: on the order of seconds

CC(=O)N[C@@H](CSN=O)C(=O)O [S-nitroso-N-acetylcysteine]
increase in cyclic GMP over basal levels (control) ([4]; human airways incubated with SNOAC): 4 fold | cGMP ([4]; human airways, Table 3): 46 ± 17 Pmol/gm | reaction at the redox metal (iron-binding) site of hemoglobin [2]: no reaction at the redox metal (iron-binding site) of hemoglobin | increase in cyclic GMP over basal levels (control) ([5]; guinea pig tracheal rings, 100 μM SNOAC, 90 seconds): 4 fold | half life [3]: on the order of hours | duration and reversibility of relaxant effects [6]: temporary (lasting only for the duration of the procedure), completely reversible | systemic blood pressure, heart rate, oxygen saturation [6]: produced no change in systemic blood pressure, heart rate or oxygen saturation | colon motility ([6]; removal of colon polyps): eliminated colon motility | duodenal motility ([6]; topical administration): eliminated duodenal motility | contractile activity of the Sphincter of Oddi ([6]; topical administration, endoscopic cannulation): inhibited the contractile activity of the Sphincter of Oddi | persistence of relaxation ([7]; 5×10^-6 M, at one hour): significant residual loss of tone was still evident at one hour | time to maximal relaxation ([7]; 5×10^-6 M, followed over 60 minutes): maximal relaxation occurred by five minutes | IC50 [7]: 2100 ± 800 nM | relaxant activity of SNOAC relative to SNOCAP ([7]; contractions induced by leukotriene D4, histamine, methacholine, in every case): approximately 10 fold | relaxant activity relative to theophylline ([7]; identical study conditions, FIG. 8): approximately 50 times | IC50 [1]: 22 µM | IC50 compared with theophylline [1]: approximately two orders of magnitude greater than theophylline | relaxant effect on human trachea, comparison with other agents ([1]; listed as SNOAC): significantly greater than that of N-acetylcysteine; also recorded: significantly more potent than that of theophylline; also recorded: compares favorably with that exerted by isoproterenol

C[C@H](CSN=O)C(=O)N1CCC[C@H]1C(=O)O [S-nitroso-captopril]
IC50 [7]: 20000 ± 700 nM

N[C@@H](CSN=O)C(=O)O [S-nitroso-cysteine]
IC50 [7]: 3200 ± 200 nM

N[C@@H](CCC(=O)N[C@@H](CSN=O)C(=O)NCC(=O)O)C(=O)O [S-nitroso-glutathione]
half life [3]: on the order of hours | IC50 [7]: 990 ± 2000 nM | IC50 [1]: 22 µM | IC50 compared with theophylline [1]: approximately two orders of magnitude greater than theophylline | relaxant effect on human trachea, comparison with other agents [1]: significantly greater than nitrite (NO2) | relaxant effect on human trachea, comparison with other agents ([1]; listed as S-nitrosoglutathione): significantly greater than glutathione alone | relaxant effect on human trachea, comparison with other agents ([1]; listed as SNOGSH): significantly more potent than that of theophylline; also recorded: compares favorably with that exerted by isoproterenol

N[C@@H](CCSN=O)C(=O)O [S-nitroso-homocysteine]
IC50 [7]: 2100 ± 300 nM

CC(C)NCC(O)c1ccc(O)c(O)c1 (stereo not shown) [isoproterenol, reference compound]
rank of relaxant activity among SNOAC, isoproterenol, theophylline ([7]; FIG. 8): most active relaxant

CN(C)c1ccc2nc3ccc(=[N+](C)C)cc-3sc2c1 [methylene blue, reference compound]
effect on SNOAC-induced increase in cyclic GMP ([5]; pretreatment with methylene blue 10^-4 M, 30 minutes): attenuated | inhibition of relaxation responses to SNOAC [7]: in a dose-dependent manner | attenuation of the actions (relaxation) of SNOAC [7]: 10-20% | inhibition of S-nitrosothiol (SNOAC)-induced relaxation in human airways [1]: neither hemoglobin or methylene blue attenuated the relaxation effect; also recorded: not significantly inhibited

Cn1c(=O)c2[nH]cnc2n(C)c1=O [theophylline]
plasma concentration at which unacceptable symptoms of toxicity usually appear [8]: ≥ 20 µg/mL

hemoglobin: hemoglobin (bovine), established inhibitor of NO-induced relaxations
inhibition of relaxation responses to SNOAC [7]: inhibited | attenuation of the actions (relaxation) of SNOAC [7]: 10-20% | inhibition of S-nitrosothiol (SNOAC)-induced relaxation in human airways [1]: neither hemoglobin or methylene blue attenuated the relaxation effect; also recorded: had little effect
